Consider one compound from patent US8735609B2, “Bryostatin analogues, synthetic methods and uses” (The Board of Trustees of the Leland Stanford Junior …, priority 2007, dated 2014).

Structures are written as SMILES.

The target of assay [1] is T1, PKCβI (PKC-GFP fusion protein) (Homo sapiens, UniProt P05771).
T1 construct: expressed in transfected cells; host or cells: Rat basophilic leukemia 2H3 (RBL) cells
The experiment in a line: PKC translocation assay, PKCβI. Type of assay: cell-based, Rat. Here is the method: (§1) Functional activity of analogs were addressed in a PKC translocation assay. […] This translocation can be observed and measured in real time with confocal microscopy using the fusion protein PKC-GFP (green fluorescent protein) as a reporter. Translocation assays were performed on the novel PKC isozymes δ and ε and on the conventional isozyme PKCβ1.
(§2) Rat basophilic leukemia 2H3 (RBL) cells were cultured in Dulbecco's Modified Eagle Medium (DMEM) (Invitrogen Life Technologies, Gibco) containing 20% fetal calf serum with 50 units/ml penicillin, […] and 4 mM glutamine (Gibco). Cells were maintained at 37° C. in an atmosphere of 10% CO2. Two hours prior to transfection, cells were plated onto sterile glass coverslips. […]
(§3) Fluorescence images were obtained using the 488 nm excitation line of a laser scanning confocal microscope (Pascal, Zeiss) and emission was collected through a 505-550 nm band pass filter. […]
(§4) Images were exported as 12 bit files and analyzed using Metamorph data analysis software (Universal Imaging). To monitor the translocation of PKCδ-GFP, a small region of interest was selected in the cytosol of each cell and fluorescence intensity values graphed against time following background subtraction and normalization. […]

Assay [2] concerns the target PKC purified from the rat brain. The experiment in a line: PKC binding assay. As to conditions: competitive inhibition of [3H]-PDBu binding; read-out: PKC Binding constant. Here is the method: Filters (Whatman GF-B, 21 mm dia.) are soaked for 1 hour in a solution containing deionized water (97 mL), and 10% polyethyleneamine (3 mL). An assay buffer solution is prepared by the combining of TRIS (1M, pH 7.4, 1 mL), KCl (1M, 2 μL), CaCl2 (0.1M, 30 μL), bovine serum albumin (40 mg), and diluting to 20 mL with deionized water and stored on ice. Phosphatidyl serine vesicles are prepared by the addition of phosphatidyl serine (10 mg/mL in chloroform, 0.4 mL) to a glass test tube followed by removal of the chloroform under a stream of nitrogen (5 min). To this viscous liquid is added a portion of the prepared assay buffer (4 mL) and the resulting mixture is then transferred to a plastic tube. This tube is then sonicated (Branson Sonifier 250, power=6, 40% duty cycle) four times for 30 sec. with a 30 sec. rest in-between sonications. The resulting solution is stored over ice. PKC is prepared by the addition of cooled assay buffer (10 mL) to PKC (25 mL) purified from the rat brain by the method of Mochly-Rosen et al. (J. Biol. Chem. 1987, 262, 2291) and then stored on ice. Stock solutions of compounds are diluted with absolute ethanol in glass in serial fashion.
Each plastic assay incubation tube is made to contain prepared phosphatidyl serine vesicles (60 μL), prepared PKC solution (200 μL) and analog ([…] plus EtOH (20-0 μL) for a total volume of 20 μL). Lastly, tritiated phorbol dibutryate ([3H]-PDBu) (30 nM, 20 μL) is added to each tube. The assay is carried out using 7-10 analog concentrations, each in triplicate. Non-specific binding is measured in 1-3 tubes by the substitution of phorbol myristate acetate (PMA) (1 mM, 5 μL) and EtOH (15 μL) for the analog/EtOH combination. The tubes are incubated at 37° C. for 90 min. and then put on ice for 5 min. Each tube is then filtered separately through a pre-soaked filter disc. The filter is subsequently rinsed with cold 20 mM TRIS buffer (5 mL) dropwise. The filters are then put in separate scintillation vials and Universol® scintillation fluid is added (3 mL). The filters are immediately counted in a scintillation counter (Beckman LS 6000SC). Counts per minute are averaged among three trials at each concentration. The data is then plotted using a least square fit algorithm with the Macintosh version of Kaleidagraph® (Abelbeck Software) and an IC50 (defined as the concentration of analog required to displace half of the specific PDBu binding to PKC) is calculated. The IC50 then allows determination of the Ki for the analog from the equation: Ki=IC50/(1+[PDBu])/Kd of PDBu).

The target in another assay is T2, PKCδ-GFP fusion protein (Homo sapiens, UniProt Q05655).
T2 construct: The DNA encoding C-terminal GFP-tagged full-length PKCδ was electroporated into the cells; expressed in transfected cells; host or cells: Rat basophilic leukemia 2H3 (RBL) cells
Nature of the assay: PKC translocation assay, PKCδ. As to conditions: RBL cells, 200 nM, confocal microscopy. Type of assay: cell-based, Rat. How it is done:
as §1, §2, §3, §4

The target of assay [3] is T3, PKCε (PKC-GFP fusion protein) (Homo sapiens, UniProt Q02156).
T3 construct: expressed in transfected cells; host or cells: Rat basophilic leukemia 2H3 (RBL) cells
The experiment in a line: PKC translocation assay, PKCε. The assay is classed as cell-based, Rat. Particulars: RBL cells, 200 nM, confocal microscopy. How it is done:
as §1, §2, §3, §4

T1 sequence (P05771 whole entry, the tested form may be a part): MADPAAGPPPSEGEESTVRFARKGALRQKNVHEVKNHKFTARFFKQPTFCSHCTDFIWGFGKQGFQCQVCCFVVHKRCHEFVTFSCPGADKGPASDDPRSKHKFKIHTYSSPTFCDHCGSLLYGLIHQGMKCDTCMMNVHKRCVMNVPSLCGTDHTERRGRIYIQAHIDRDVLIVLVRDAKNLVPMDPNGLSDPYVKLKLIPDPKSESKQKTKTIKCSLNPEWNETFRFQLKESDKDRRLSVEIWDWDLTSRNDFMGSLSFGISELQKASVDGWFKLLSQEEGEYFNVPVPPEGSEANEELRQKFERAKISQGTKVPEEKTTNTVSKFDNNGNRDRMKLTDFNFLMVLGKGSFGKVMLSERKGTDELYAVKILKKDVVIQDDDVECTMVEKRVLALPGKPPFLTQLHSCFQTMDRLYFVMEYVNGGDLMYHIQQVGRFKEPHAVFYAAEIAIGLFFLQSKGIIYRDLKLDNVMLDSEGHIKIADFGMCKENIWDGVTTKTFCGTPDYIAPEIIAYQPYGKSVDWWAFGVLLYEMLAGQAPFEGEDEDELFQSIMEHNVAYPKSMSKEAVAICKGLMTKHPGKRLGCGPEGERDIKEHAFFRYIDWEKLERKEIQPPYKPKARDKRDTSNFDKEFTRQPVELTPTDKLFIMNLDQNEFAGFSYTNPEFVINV
T2 sequence (Q05655 whole entry, the tested form may be a part): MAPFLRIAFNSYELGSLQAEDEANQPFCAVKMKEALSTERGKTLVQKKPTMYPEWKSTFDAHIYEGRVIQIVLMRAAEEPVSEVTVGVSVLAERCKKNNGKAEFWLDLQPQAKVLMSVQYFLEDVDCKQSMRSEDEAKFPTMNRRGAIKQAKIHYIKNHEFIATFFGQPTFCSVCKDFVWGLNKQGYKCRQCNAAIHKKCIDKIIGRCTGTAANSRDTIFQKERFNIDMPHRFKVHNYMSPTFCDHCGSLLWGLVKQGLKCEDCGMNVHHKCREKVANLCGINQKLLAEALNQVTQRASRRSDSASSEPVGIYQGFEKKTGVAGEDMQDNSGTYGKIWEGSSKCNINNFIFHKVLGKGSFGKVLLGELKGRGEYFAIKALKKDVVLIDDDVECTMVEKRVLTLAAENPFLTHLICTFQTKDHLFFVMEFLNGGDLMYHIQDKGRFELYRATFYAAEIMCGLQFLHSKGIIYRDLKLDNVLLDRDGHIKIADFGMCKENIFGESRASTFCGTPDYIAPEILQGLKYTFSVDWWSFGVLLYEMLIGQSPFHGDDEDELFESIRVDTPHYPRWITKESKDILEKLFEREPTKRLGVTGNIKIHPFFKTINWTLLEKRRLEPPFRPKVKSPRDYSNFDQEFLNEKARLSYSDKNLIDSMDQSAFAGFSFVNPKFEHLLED
T3 sequence (Q02156 whole entry, the tested form may be a part): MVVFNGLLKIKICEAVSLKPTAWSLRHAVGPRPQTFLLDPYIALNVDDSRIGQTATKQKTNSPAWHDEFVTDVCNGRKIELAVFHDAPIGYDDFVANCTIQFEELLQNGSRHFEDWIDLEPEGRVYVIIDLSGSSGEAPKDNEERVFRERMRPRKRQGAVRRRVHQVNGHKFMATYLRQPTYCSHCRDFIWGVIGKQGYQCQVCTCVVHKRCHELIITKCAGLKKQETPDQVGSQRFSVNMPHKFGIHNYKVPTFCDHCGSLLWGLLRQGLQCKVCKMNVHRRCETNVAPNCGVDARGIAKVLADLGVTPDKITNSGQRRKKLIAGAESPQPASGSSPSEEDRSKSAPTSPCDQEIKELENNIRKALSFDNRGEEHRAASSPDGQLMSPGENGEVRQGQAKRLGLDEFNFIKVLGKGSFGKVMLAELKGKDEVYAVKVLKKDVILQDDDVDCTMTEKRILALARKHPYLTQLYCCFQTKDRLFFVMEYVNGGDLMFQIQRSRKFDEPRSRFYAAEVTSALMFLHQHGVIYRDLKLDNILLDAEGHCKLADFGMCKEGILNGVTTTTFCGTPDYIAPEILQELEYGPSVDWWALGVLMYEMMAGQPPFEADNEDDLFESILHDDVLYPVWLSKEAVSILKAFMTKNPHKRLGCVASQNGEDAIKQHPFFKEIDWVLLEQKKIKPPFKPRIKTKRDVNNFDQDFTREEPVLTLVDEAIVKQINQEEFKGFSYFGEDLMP

With `CCCCCCCC(=O)OC1C(=CC(=O)OC)CC2CC(CO)OC(=O)CC(O)CC3CCCC(CC4COC(C=CC(C)(C)C1(O)O2)O4)O3` (centres unmarked) [Formula 18B.1], the “ability to translocate PKCβI relative to bryostatin 1” value in assay [1] is “significantly reduced ability to translocate”. For the same compound, the “translocation of PKCβI from the cytosol to cellular membranes” value in assay [1] (RBL cells, 200 nM, confocal microscopy) was “reduced”. In addition, the Ki in assay [2] stood at 5.4 nM. Besides, on PKCδ-GFP fusion protein, the “translocation of PKCδ from the cytosol to cellular membranes” value is “rapid and complete”. In assay [3], the “translocation of PKCε from the cytosol to cellular membranes” value is “rapid and complete”.
